Results from the supplement of paper PMC10307832.

Key:
Assay in all cases: relative viability (nuclei count vs DMSO), 5 days (fraction); higher = more cells survive
ABC-1 = tested on: ABC-1
Summary of the method: (§1)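 Nuclei were stained with Hoechst during a one-step fixation (final 0.05% Triton X-100, 1% formaldehyde, 1 ug/ml Hoechst) carried out 5 days after dosing, then counted on 4× images. The cells, lung cancer lines in 1536-well plates, had been dosed by pin tool the day after seeding with one drug alone or a fixed anchor-drug dose plus five library-drug doses (not always all listed) in √10 steps. Relative viability is the nuclei count in treated wells divided by that in vehicle wells, and each value is the median of duplicate plates.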

EMC-BAC-2 = tested on: EMC-BAC-2
Summary of the method: as §1

NCI-H23 = tested on: NCI-H23
Summary of the method: as §1

Calu-6 = tested on: Calu-6
Summary of the method: as §1

NCI-H1299 = tested on: NCI-H1299
Summary of the method: as §1

HCC-78 = tested on: HCC-78
Summary of the method: as §1

NCI-H1703 = tested on: NCI-H1703
Summary of the method: as §1

NCI-H1437 = tested on: NCI-H1437
Summary of the method: as §1

NCI-H661 = tested on: NCI-H661
Summary of the method: as §1

EBC-1 = tested on: EBC-1
Summary of the method: as §1

IA-LM = tested on: IA-LM
Summary of the method: as §1

In the case of `COCC1(CO)C(=O)C2CCN1CC2` (centres undefined) [PRIMA-1MET] + CC(C)C[C@H](NC(=O)[C@H](Cc1ccccc1)NC(=O)c1cnccn1)B(O)O [Bortezomib] (partner 0.002 µM), the relative viability (ABC-1; first compound 0.2 µM) is reported as 0.297, the relative viability (ABC-1; first compound 0.6325 µM) is reported as 0.278 and the relative viability (ABC-1; first compound 2 µM) is reported as 0.256. It also gave a relative viability (ABC-1; first compound 6.325 µM) of 0.287, a relative viability (ABC-1; first compound 20 µM) of 0.276 and a relative viability (EMC-BAC-2; first compound 0.2 µM) of 1.15. It also gave a relative viability (EMC-BAC-2; first compound 0.6325 µM) of 1.02, a relative viability (EMC-BAC-2; first compound 2 µM) of 0.952 and a relative viability (EMC-BAC-2; first compound 6.325 µM) of 1.03. The relative viability (EMC-BAC-2; first compound 20 µM) was 1.08, the relative viability (NCI-H23; first compound 0.2 µM) was 0.966 and the relative viability (NCI-H23; first compound 0.6325 µM) was 0.724. It also gave a relative viability (NCI-H23; first compound 2 µM) of 0.944, a relative viability (NCI-H23; first compound 6.325 µM) of 1.05 and a relative viability (NCI-H23; first compound 20 µM) of 0.116. It also gave a relative viability (Calu-6; first compound 0.2 µM) of 1.11, a relative viability (Calu-6; first compound 0.6325 µM) of 0.95 and a relative viability (Calu-6; first compound 2 µM) of 1.07. For the same molecule, the relative viability (Calu-6; first compound 6.325 µM) was 1.02, the relative viability (Calu-6; first compound 20 µM) was 0.463 and the relative viability (NCI-H1299; first compound 0.2 µM) was 1.06. The relative viability (NCI-H1299; first compound 0.6325 µM) was 1.02, the relative viability (NCI-H1299; first compound 2 µM) was 0.96 and the relative viability (NCI-H1299; first compound 6.325 µM) was 1.09. It also gave a relative viability (NCI-H1299; first compound 20 µM) of 0.996, a relative viability (HCC-78; first compound 0.2 µM) of 0.694 and a relative viability (HCC-78; first compound 0.6325 µM) of 0.521. It also gave a relative viability (HCC-78; first compound 2 µM) of 0.452, a relative viability (HCC-78; first compound 6.325 µM) of 0.485 and a relative viability (HCC-78; first compound 20 µM) of 0.0823. The relative viability (NCI-H1703; first compound 0.2 µM) was 0.568, the relative viability (NCI-H1703; first compound 0.6325 µM) was 0.369 and the relative viability (NCI-H1703; first compound 2 µM) was 0.311. For the same molecule, the relative viability (NCI-H1703; first compound 6.325 µM) was 0.142, the relative viability (NCI-H1703; first compound 20 µM) was 0.049 and the relative viability (NCI-H1437; first compound 0.2 µM) was 0.573. The relative viability (NCI-H1437; first compound 0.6325 µM) was 0.403, the relative viability (NCI-H1437; first compound 2 µM) was 0.538 and the relative viability (NCI-H1437; first compound 6.325 µM) was 0.594. For the same molecule, the relative viability (NCI-H1437; first compound 20 µM) was 0.432, the relative viability (NCI-H661; first compound 0.2 µM) was 0.846 and the relative viability (NCI-H661; first compound 0.6325 µM) was 0.69. For the same molecule, the relative viability (NCI-H661; first compound 6.325 µM) was 0.817, the relative viability (NCI-H661; first compound 20 µM) was 0.623 and the relative viability (EBC-1; first compound 0.2 µM) was 0.581. The relative viability (EBC-1; first compound 0.6325 µM) was 0.549, the relative viability (EBC-1; first compound 2 µM) was 0.572 and the relative viability (EBC-1; first compound 6.325 µM) was 0.544. For the same molecule, the relative viability (EBC-1; first compound 20 µM) was 0.136, the relative viability (IA-LM; first compound 0.2 µM) was 1.02 and the relative viability (IA-LM; first compound 0.6325 µM) was 0.648. For the same molecule, the relative viability (IA-LM; first compound 2 µM) was 0.831, the relative viability (IA-LM; first compound 6.325 µM) was 0.989 and the relative viability (IA-LM; first compound 20 µM) was 0.903.
